Results published in US11834401B2, “Treating and preventing diseases by modulating cell mechanics” (THE JOHNS HOPKINS UNIVERSITY, priority 2013, dated 2023).

Experiments:
myosin IIC = biological target: T1, myosin IIC (Homo sapiens, UniProt Q7Z406); assay: Mammalian cell sedimentation assay; type: cell-based
T1 construct: endogenous in cells; host or cells: HEK293, ASPC-1, HPDE
Procedure: (§1) Sedimentation protocol was adapted from the protocol above. 3×10^6 cells were pelleted for 5 min at 2000 rpm and washed in 1 ml PBS. The pellet was resuspended in 100 μl lysis buffer (50 mM PIPES, pH 6.8, 46 mM NaCl, 2.5 mM EGTA, 1 mM MgCl2, 1 mM ATP, 0.5% Triton X-100, and protease inhibitors—PI cocktail, PMSF, TLCK, Aprotinin). Samples were vortexed briefly and incubated on ice for 20 min, followed by centrifugation at 15,000 g for 5 min at 4° C.
(§2) Pellet was resuspended in 100 μl lysis buffer minus Triton X-100, and both pellet and supernatant fractions were heated to 100° C. for 3 min with RNaseA. Samples were incubated at 37° C. for 30 min and then heated to 100° C. in sample buffer for 5 min. Samples were loaded on a 15% SDS-polyacrylamide gel. Western blot analyses of phospho-myosin IIA was performed on whole cell lysates of cells treated as above in lysate buffer with 10 mM NaF.

myosin IIB = biological target: T2, myosin IIB (Homo sapiens, UniProt P35580); assay: Mammalian cell sedimentation assay; type: cell-based
T2 construct: endogenous in cells; host or cells: HEK293, HPDE
Procedure: as §1, §2

myosin IIA = biological target: T3, myosin IIA (Homo sapiens, UniProt P35579); assay: Mammalian cell sedimentation assay; type: cell-based; conditions: human-derived cell lines
T3 construct: endogenous in cells; host or cells: HEK293, HPDE, ASPC-1
Procedure: as §1, §2

ASPC-1 cells = assay: Viability assay; type: cell-based, human; conditions: 50 nM, 500 nM

T1 sequence (Q7Z406 whole entry): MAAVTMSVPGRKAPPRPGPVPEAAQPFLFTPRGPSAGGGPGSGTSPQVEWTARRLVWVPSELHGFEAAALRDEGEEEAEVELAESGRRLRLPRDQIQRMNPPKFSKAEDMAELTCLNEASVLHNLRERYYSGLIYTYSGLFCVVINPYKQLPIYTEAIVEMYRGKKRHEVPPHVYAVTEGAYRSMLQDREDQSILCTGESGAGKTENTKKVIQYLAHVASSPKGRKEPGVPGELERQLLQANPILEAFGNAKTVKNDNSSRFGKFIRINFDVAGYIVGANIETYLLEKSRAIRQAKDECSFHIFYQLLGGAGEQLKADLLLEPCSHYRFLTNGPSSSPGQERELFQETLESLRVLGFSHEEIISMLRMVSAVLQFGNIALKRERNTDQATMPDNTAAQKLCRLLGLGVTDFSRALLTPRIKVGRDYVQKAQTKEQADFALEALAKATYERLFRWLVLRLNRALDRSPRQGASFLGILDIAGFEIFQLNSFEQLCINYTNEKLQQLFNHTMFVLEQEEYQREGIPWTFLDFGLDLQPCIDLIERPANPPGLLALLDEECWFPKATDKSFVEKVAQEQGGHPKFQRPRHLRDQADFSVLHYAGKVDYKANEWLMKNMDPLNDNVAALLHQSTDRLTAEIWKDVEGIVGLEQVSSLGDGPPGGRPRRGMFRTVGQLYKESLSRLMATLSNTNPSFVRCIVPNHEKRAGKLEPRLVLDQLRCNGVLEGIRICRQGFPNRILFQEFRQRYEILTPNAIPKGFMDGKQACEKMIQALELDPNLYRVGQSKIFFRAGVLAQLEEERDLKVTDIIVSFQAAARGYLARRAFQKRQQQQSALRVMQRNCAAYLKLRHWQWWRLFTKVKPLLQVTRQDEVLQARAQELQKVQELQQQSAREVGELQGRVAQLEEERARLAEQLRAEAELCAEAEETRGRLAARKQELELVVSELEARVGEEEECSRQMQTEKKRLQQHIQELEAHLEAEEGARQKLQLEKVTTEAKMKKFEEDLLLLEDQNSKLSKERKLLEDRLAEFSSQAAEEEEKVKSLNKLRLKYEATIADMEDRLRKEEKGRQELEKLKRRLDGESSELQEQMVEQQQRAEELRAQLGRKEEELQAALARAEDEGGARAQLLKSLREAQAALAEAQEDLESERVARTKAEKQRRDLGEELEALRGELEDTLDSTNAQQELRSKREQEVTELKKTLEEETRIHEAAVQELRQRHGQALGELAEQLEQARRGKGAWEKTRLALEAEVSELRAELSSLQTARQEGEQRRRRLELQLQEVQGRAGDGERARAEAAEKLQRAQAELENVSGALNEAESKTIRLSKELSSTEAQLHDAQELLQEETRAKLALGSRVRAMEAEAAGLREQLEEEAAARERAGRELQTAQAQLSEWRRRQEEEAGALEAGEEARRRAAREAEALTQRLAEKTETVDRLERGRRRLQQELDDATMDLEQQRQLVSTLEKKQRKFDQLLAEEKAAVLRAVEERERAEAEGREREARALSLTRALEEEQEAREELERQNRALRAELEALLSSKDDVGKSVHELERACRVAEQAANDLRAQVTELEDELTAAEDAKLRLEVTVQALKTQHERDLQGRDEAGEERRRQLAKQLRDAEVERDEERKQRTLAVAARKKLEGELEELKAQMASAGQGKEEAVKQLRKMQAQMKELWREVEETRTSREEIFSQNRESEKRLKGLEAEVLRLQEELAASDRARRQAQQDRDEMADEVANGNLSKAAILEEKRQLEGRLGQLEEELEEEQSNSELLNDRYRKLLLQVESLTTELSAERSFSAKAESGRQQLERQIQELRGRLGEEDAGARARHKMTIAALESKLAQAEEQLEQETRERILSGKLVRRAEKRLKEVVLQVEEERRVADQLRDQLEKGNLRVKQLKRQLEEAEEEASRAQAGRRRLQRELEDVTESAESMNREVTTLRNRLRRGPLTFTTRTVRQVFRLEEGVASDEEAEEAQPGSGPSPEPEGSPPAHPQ
T2 sequence (P35580 whole entry): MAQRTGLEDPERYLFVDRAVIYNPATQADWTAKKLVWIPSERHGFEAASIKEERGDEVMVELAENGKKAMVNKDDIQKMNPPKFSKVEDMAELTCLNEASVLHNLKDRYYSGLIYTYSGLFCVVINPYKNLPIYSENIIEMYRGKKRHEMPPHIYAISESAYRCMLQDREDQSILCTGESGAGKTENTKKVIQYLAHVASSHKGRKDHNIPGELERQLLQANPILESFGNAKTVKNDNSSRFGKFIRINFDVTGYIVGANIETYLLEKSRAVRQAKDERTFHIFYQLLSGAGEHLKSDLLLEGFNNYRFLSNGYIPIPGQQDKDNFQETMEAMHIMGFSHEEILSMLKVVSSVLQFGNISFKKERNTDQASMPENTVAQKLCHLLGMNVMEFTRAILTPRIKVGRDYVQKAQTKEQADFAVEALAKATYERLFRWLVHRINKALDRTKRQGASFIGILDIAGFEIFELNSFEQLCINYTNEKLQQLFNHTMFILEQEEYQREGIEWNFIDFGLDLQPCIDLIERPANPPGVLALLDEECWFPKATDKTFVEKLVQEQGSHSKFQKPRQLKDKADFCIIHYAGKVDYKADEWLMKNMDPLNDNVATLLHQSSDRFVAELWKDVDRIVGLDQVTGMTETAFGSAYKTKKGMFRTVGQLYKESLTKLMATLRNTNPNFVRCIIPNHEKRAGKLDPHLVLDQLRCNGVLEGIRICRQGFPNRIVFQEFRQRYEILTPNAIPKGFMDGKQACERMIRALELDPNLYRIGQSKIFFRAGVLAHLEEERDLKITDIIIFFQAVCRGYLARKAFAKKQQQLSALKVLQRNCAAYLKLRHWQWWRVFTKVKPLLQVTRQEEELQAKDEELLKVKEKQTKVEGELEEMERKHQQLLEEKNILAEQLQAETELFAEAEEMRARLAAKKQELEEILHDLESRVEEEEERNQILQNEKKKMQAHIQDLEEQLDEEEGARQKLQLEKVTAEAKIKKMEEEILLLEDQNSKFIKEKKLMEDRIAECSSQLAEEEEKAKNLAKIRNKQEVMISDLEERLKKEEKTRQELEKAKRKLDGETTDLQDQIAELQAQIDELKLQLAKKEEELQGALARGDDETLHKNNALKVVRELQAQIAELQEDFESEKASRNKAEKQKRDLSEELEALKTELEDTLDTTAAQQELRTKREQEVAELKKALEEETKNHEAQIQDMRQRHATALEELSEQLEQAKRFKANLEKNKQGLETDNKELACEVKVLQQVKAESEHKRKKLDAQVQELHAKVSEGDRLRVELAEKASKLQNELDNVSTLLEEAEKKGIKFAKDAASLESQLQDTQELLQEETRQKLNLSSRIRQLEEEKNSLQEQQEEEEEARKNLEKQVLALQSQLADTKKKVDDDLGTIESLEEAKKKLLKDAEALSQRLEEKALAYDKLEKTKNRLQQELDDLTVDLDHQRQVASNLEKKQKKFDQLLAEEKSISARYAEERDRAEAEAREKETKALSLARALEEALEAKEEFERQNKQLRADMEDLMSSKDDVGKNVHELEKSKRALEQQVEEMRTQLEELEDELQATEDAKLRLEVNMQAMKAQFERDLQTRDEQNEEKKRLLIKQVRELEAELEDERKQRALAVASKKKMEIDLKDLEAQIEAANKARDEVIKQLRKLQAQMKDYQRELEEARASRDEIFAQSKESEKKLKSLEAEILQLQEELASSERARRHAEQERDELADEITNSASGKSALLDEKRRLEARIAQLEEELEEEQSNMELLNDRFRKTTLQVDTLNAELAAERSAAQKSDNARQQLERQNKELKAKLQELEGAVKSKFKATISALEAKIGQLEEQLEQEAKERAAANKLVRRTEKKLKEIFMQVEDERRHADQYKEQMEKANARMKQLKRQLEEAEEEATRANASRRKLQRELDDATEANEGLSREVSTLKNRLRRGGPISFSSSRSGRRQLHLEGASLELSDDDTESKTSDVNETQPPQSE

CC(=O)c1ccc(O)cc1 [4-HAP, 4-hydroxyacetophenone]
assembled myosin IIC (myosin IIC; ASPC-1 cells, 500 nM, 1 hr): increases assembled myosin IIC
assembled myosin IIC (myosin IIC; HEK293 cells, 500 nM, 1 hr): increases in assembled myosin IIB and IIC
assembled myosin IIC (myosin IIC; wild type HPDE cells): increases assembled myosin IIC
assembled myosin IIB (myosin IIB; HEK293 cells, 500 nM, 1 hr): increases in assembled myosin IIB and IIC
assembled myosin IIB (myosin IIB; HPDE cells): showed a shift in assembly
assembled myosin IIA (myosin IIA): showed little change
viability vs DMSO control (ASPC-1 cells): no difference over DMSO control
